Experimental data reported in patent US20250381110A1, “SKIN CARE COMPOSITION AND METHOD OF USING THE SAME” (THE PROCTER & GAMBLE COMPANY, priority 2024, published 2025).

What was measured:
p62-dependent mitophagy = assay: Luciferase-p62 clearance assay, stated for HDFs; format: cell-based, human; conditions: 10 μM; HDFs as printed
Protocol: FIGS. 15A-15C show hydroxycinnamic acids (HCAs) tested in mitophagy assays in primary HDFs. […] 80,000 mixed aged Fibroblasts expressing the Su9-Halo-GFP reporter were treated for 48 h with the indicated HCAs. A change in the reporter excitation occurs because the GFP tag is quenched in the lysosome environment, indicating mitophagy.
To identify p62-dependent materials which increase mitophagy, a Luciferase-p62 Assay was established. This method provides an approach to measure the ability of a material to modulate p62-dependent mitophagy by using an inducible firefly luciferase-p62 (Fluc-p62) reporter cell system. In this assay, p62 levels are driven by doxycycline treatment. After levels increased, expression of Fluc-p62 is turned off by removal of doxycycline, materials are then added and assessed for how they affect clearance of Fluc-p62 protein, which is proportionate to cellular mitophagy rates (Kelly et al.). […]
Test materials including bioactive materials were screened in mouse embryonic fibroblasts (MEFs, Harada et al.) expressing the TET-inducible p62-fluc construct as previously described (Brown et al.). […] Subsequently, cells were treated with test materials for 48 hours in normal growth medium and analysed using ONE-Glo™+Tox Luciferase Reporter and Cell Viability Assay (Promega) by following the manufacturer's protocol.

[1] = system: human dermal fibroblasts (HDFs); assay: Cell motility assay; format: cell-based; conditions: HDFs from aged donors; 30 μM, 7 h
Protocol: HDFs were seeded in glass bottomed multiwell plates (Greiner, 662892), 24 h prior to imaging. Images were captured using a Zeiss CellDiscoverer 7 with a 5x/0.35NA lens with a 2× optovar using oblique mode brightfield with a Hamamatsu Fusion camera every 300 seconds for 5 h (1 ms exposure time), capturing 2 random fields per well. Cells were maintained at 37° C., 5% CO2 throughout experiments. 6 cells were analysed per field using the Manual Tracking plugin in FIJI/ImageJ, and shown as mean movement per cell recorded.

IL-8 = assay: SASP assessment, IL-8 mRNA by qPCR; format: cell-based, human; conditions: HDFs; 30 μM for 5 h prior to IR; 11 days after IR
Protocol: Quantibody Human Cytokine Arrays for 20 cytokines (RayBiotech; QAH-CYT-1) were performed using conditioned media collected from primary dermal fibroblasts culture. mRNA levels of human IL-6 and IL-8 were measured by quantitative polymerase chain reaction (qPCR. Total RNA was extracted using RNeasy Mini Kit (QIAGEN, 74104). From 500 ng of total RNA, first-strand complementary DNA (cDNA) was produced using SuperScript III reverse transcriptase (Invitrogen, 18080044). Quantitative PCR was performed in a StepOnePlus Real-Time PCR system (Applied Biosystems) using Power SYBR Green PCR Master Mix (Applied Biosystems, 4367659). mRNA levels were determined with the […] and normalised to GAPDH levels.

[2] = system: human dermal fibroblasts (HDFs); assay: Average nuclear size by immunofluorescence microscopy; format: cell-based
Protocol: Immunofluorescence analyses were performed as described previously (Carroll et al.). In brief, cells were seeded on coverslips in 24-well plates and fixed in 4% formaldehyde in PBS for 10 min at room temperature followed by permeabilization in 0.5% Triton X-100 (Sigma-Aldrich) in PBS for 4 min at room temperature (Ki67 and p21) or in methanol for 4 min at −20° C. (LC3 and p62). Cells were then blocked for 1 h in 5% normal goat serum (Sigma-Aldrich) in PBS at room temperature and incubated with primary antibodies overnight at 4° C. Cells were washed three times and incubated with the appropriate secondary antibodies for 1 h at room temperature (Thermo Fisher Scientific, A31556 and A21235, 1:1000). Cells were washed, and coverslips were mounted on slides with Prolong Gold antifade mountant with DAPI (Invitrogen). Fluorescence images were obtained as described above. The following primary antibodies were used: rabbit anti-Ki67 (Abcam, ab 15580, 1:250), rabbit anti-p21 (CST, 2947, 1:1000), mouse anti-LC3 (NanoTools, 0260-100, 1:200) and rabbit anti-p62 (MBL, PM045, 1:500).

- increase p62-dependent mitophagy levels over baseline (p62-dependent mitophagy): 33%
SMILES: CC(=O)Oc1ccc(N2C(=O)C3C(Cc4ccccc4)NC4(C(=O)Nc5c4ccc(Cl)c5C)C3C2=O)cc1 (centres unmarked) [STOCKIN-57543]
- cell motility [1]: improving cell motility
- IR-associated increase in IL-8 level (mRNA) (IL-8): mitigating IR-associated increases in levels of the SASP factors IL-6 and IL-8
- nuclear size ([2]; HDFs from aged donors, 30 μM, 7 h): decreasing a senescence-associated increase in nuclear size
- IR-associated increase in nuclear size ([2]; HDFs, treatment 5 h prior to IR): mitigating IR-associated increase in nuclear size
